Structures can show the parent of a compound that is named as a salt. Where two headings read alike, the source gives them in different places.
What was measured:
[1] = tested on: TNFα induced MMP-13 expression; assay: TNFα induced MMP-13 expression in human chondrocyte cell line SW1353; conditions: for TNFa Stimulated % Activity average (MMP-13 expression): Table 6; for TNFa Stimulated % Activity average (MMP-13 expression) / activity at 20 µg/mL / TNFa Stimulated MMP-13 n = 1 / TNFa Stimulated MMP-13 average / activity at 1 µg/mL / activity at 5 µg/mL / activity at 10 µg/mL: TNF pos = 100%; for activity at 20 µg/mL / activity at 1 µg/mL / activity at 5 µg/mL / activity at 10 µg/mL: SW1353, 24 h; for Dose dependence of inhibition of TNFα induced MMP-13 expression: Example 2, 20, 10, 5 and 1 ug/ml
Procedure: The SW1353 human chondrocyte cell line was used as described below.
Cells were grown and subcultured in 96-well plates at a density of 8×10^4 cells per well and allowed to reach ˜80% confluence overnight. Test compounds in medium were added to the cells at a final concentration of 0.1% DMSO. Following one hour of incubation with the test compounds, TNFα (10 ng/ml) or medium alone was added to the cell wells and incubation continued for 24 hours. The supernatant media was subsequently collected for MMP-13 determination.
Determination of MMP-13: A commercial, non-radioactive procedure for quantification of MMP-13 was used according to the manufacturer's instructions using MMP-13 as a standard. A minimum of 3 wells were used for each test condition.
The amount of MMP-13 release into the medium was determined by comparison of the MMP-13 generated in the presence or absence of TNFα and test compounds. A minimum of three wells were used for each test condition. The basal MMP-without 13 levels without TNFα stimulation was subtracted from TNF stimulation to determine the TNFα induced MMP-13 expression in the medium and the levels normalized to 100%. The percent activity of test compounds was measured in the presence of TNFα and referred as TNFα induced MMP-13 expression.

[2] = tested on: TNFα induced MMP-13 expression; assay: Synergy (Combinational Index) of THIAA and berberine on TNFα induced MMP-13 expression in SW1353; type: cell-based; conditions: Homo sapiens
Procedure: The SW1353 human chondrocyte cell line was used as described in Example 1.
The human chondrocyte cell line, SW1353 were maintained and treatments conditions were described in Example 1. […]; 1:10; 5:1; 2:1; 1:1; 1:2; 1:5; 1:10; […].
Determination of MMP-13 expression—The MMP-13 levels in the medium was measured as described in Example 1.
Median effect calculations were performed using CalcuSyn (Biosoft, Ferguson, Mo.). […] A minimum of three concentrations were used to determine the dose-response curve and a median inhibitory concentration (IC50).
Synergy—Combinational Index (CI) values were measured using CalcuSyn (Biosoft, Ferguson, Mo.). […]

[3] = tested on: sRANKL mediated TRAP activity (osteoclastogenesis), RAW 264.7; assay: sRANKL mediated osteoclastogenesis: TRAP activity in RAW 264.7 cells; conditions: for % TRAP activity average (sRANKL induced TRAP activity): RAW 264.7 cells, sRANKL alone normalized to 100%; for activity at 5 µg/mL / activity at 10 µg/mL: Mus musculus, RAW264.7, read-out: % TRAP Activity average; for % TRAP Activity average: Table 8, RAW 264.7, sRANKL 50 ng/ml, RANKL = 100%
Procedure: Following overnight incubation with the test compounds, sRANKL (50 ng/ml) or medium alone was added to the cell wells. The medium was replaced after 2 days with test compounds and sRANKL and incubation was continued for 3 additional days.
The cells were washed twice with ice cold PBS and lysed in 150 μl of 0.2% triton x-100 in PBS. TRAP activity in cell lysates was determined by using TRAP solution from the kit (Sigma 387A1 kit), according to the manufacturers instructions. A 100 μl cell lysates was added to 100 μl of TRAP solution in 96 well plate and incubated at 37° C. for 1 hr. The absorbance was measured at 555 nm using a plate reader. The protein concentration was estimated using BCA reagent (Sigma) and the final activity was normalized for equal protein.
Inhibition of TRAP activity was determined by comparison of the TRAP activity in the presence of with and with out test compounds in sRANKL, activated osteoclasts. A minimum of two wells were used for each concentration.
Inhibition of TRAP activity was determined by comparison in the presence of with and with out test compounds in sRANKL activated osteoclasts. A minimum of two wells were used for each concentration. The basal TRAP activity levels with out sRANKL stimulation was subtracted from sRANKL stimulation to get the sRANKL induced TRAP activity and the activity was normalized to 100%. The percent activity of test compounds was measured in the presence of sRANKL and referred as sRANKL induced TRAP activity.
A minimum of three concentrations were used to determine median inhibitory concentration (IC50).

[4] = Homo sapiens, read-out: TNFa Stimulated MMP-13 average, Table 4, 20 ug/mL, SW1353, TNFα 10 ng/ml 24 h
[5] = Table 4, 20 ug/mL, SW1353, TNFα 10 ng/ml 24 h
[6] = Homo sapiens, read-out: TNFa Stimulated MMP-13 average, Table 5, 1 ug/mL, SW1353
[7] = Homo sapiens, read-out: TNFa Stimulated MMP-13 average, Table 5, 5 ug/mL, SW1353
[8] = Homo sapiens, read-out: TNFa Stimulated MMP-13 average, Table 5, 10 ug/mL, SW1353
[9] = Homo sapiens, read-out: TNFa Stimulated MMP-13 average, Table 5, 20 ug/mL, SW1353

Compound	% TRAP activity average (sRANKL induced TRAP activity) ([3]; 1 ug/mL test compound) [%]	% TRAP activity average (sRANKL induced TRAP activity) ([3]; 5 ug/mL test compound) [%]	% TRAP activity average (sRANKL induced TRAP activity) ([3]; 10 ug/mL test compound) [%]	activity at 5 µg/mL [3] [%]	activity at 10 µg/mL [3] [%]	activity at 20 µg/mL [1, 4] [%]	TNFa Stimulated MMP-13 average [1, 5] [%]	further results
COc1ccc2cc3[n+](cc2c1OC)CCc1cc2c(cc1-3)OCO2 [Berberine sulfate]	–	–	–	–	–	–	–	Dose dependence of modulation of TNFα induced MMP-13 expression ([1]; Example 3, SW1353): dose dependently modulated; IC50 ([1]; Homo sapiens, SW1353, read-out: IC50 (TNFa induced MMP-13 expression)): 0.15 µg/mL; TNFa Stimulated % Activity average (MMP-13 expression) ([1]; 0.05 ug/mL, SW1353): 99%; TNFa Stimulated % Activity average (MMP-13 expression) ([1]; 0.1 ug/mL, SW1353): 50%; TNFa Stimulated % Activity average (MMP-13 expression) ([1]; 0.5 ug/mL, SW1353): 4%; TNFa Stimulated % Activity average (MMP-13 expression) ([1]; 1 ug/mL, SW1353): −1%; IC50 ([2]; Table 7B, single agents, read-out: Dm (median effect dose, TNFα induced MMP-13 expression)): 0.254 µg/mL; IC50 ([2]; text b137, single agents, read-out: IC50 (TNFα induced MMP-13 expression)): 0.254 µg/mL
COc1ccc2cc3[n+](cc2c1OC)CCc1cc2c(cc1-3)OCO2 [Berberine, 7,8,13,13a-tetrahydro-9,10-dimethoxy-2,3-(methylenedioxy)-berbinium]	68	15	7	4	-8	-39	–	TNFa Stimulated MMP-13 n = 1 ([1]; Table 5, 1 ug/mL, SW1353): −1%; TNFa Stimulated MMP-13 n = 1 ([1]; Table 5, 5 ug/mL, SW1353): −4%; TNFa Stimulated MMP-13 n = 1 ([1]; Table 5, 10 ug/mL, SW1353): −4%; TNFa Stimulated MMP-13 n = 1 ([1]; Table 5, 20 ug/mL, SW1353): −4%
CC/C=C\C/C=C\C/C=C\C/C=C\C/C=C\C/C=C\CCC(=O)O [DHA]	–	–	–	–	–	–	265	% TRAP Activity average ([3]; 5 ug/mL): 120%; % TRAP Activity average ([3]; 10 ug/mL): 105%
C[C@]12CC[C@H](O)CC1=CC[C@@H]1[C@@H]2CC[C@]2(C)C(=O)CC[C@@H]12 [DHEA, reference compound]	–	–	–	–	–	–	−2	% TRAP Activity average ([3]; 5 ug/mL): 46%; % TRAP Activity average ([3]; 10 ug/mL): 33%; Dose dependence of inhibition of TNFα induced MMP-13 expression ([1]; SW1353): dose dependently (20, 10, and 1 ug/ml) inhibited; TNFa Stimulated MMP-13 average ([1]; Table 5, 1 ug/mL, SW1353): 111%; TNFa Stimulated MMP-13 average ([1]; Table 5, 5 ug/mL, SW1353): 108%; TNFa Stimulated MMP-13 average ([1]; Table 5, 10 ug/mL, SW1353): 64%; TNFa Stimulated MMP-13 average ([1]; Table 5, 20 ug/mL, SW1353): 5%
O=c1c(-c2ccc(O)cc2)coc2cc(O)cc(O)c12 [Genistein]	–	–	–	91	72	27	–	–
CC1(C)C=Cc2c(ccc3c2OC[C@@H](c2ccc(O)cc2O)C3)O1 [Glabridin]	–	–	–	82	75	79	–	–
N[C@H]1C(O)O[C@H](CO)[C@@H](O)[C@@H]1O (stereo partly shown) [Glucosamine]	179	183	269	75	48	77	–	TNFa Stimulated MMP-13 n = 1 ([1]; Table 5, 1 ug/mL, SW1353): 126%; TNFa Stimulated MMP-13 n = 1 ([1]; Table 5, 5 ug/mL, SW1353): 137%; TNFa Stimulated MMP-13 n = 1 ([1]; Table 5, 10 ug/mL, SW1353): 107%; TNFa Stimulated MMP-13 n = 1 ([1]; Table 5, 20 ug/mL, SW1353): 105%
COc1ccc([C@@H]2CC(=O)c3c(O)cc(O[C@@H]4O[C@H](CO[C@@H]5O[C@@H](C)[C@H](O)[C@@H](O)[C@H]5O)[C@@H](O)[C@H](O)[C@H]4O)cc3O2)cc1O [Hesperidin]	–	–	–	–	–	–	13	% TRAP Activity average ([3]; 5 ug/mL): 81%; % TRAP Activity average ([3]; 10 ug/mL): 76%
CC(C)Oc1ccc2c(=O)c(-c3ccccc3)coc2c1 [Ipriflavone, reference compound]	168	164	82	–	–	-42	–	Dose dependence of inhibition of TNFα induced MMP-13 expression ([1]; SW1353): dose dependently (20, 10, and 1 ug/ml) inhibited; activity at 1 µg/mL [1, 6]: 86%; activity at 5 µg/mL [1, 7]: 20%; activity at 10 µg/mL [1, 8]: 0%; activity at 20 µg/mL [1, 9]: 3%
CCCCC/C=C\C/C=C\CCCCCCCC(=O)O [Linoleic Acid]	–	–	–	–	–	23	–	–
CC1(C)CC[C@]2(C(=O)O)CC[C@]3(C)C(=CC[C@@H]4[C@@]5(C)CC[C@H](O)C(C)(C)[C@@H]5CC[C@]43C)[C@@H]2C1 [Oleanolic Acid]	139	63	32	61	35	–	–	activity at 10 µg/mL ([1]; Homo sapiens, read-out: TNFa Stimulated MMP-13 average, Table 4, 10 ug/mL, SW1353, TNFα 10 ng/ml 24 h): 17%; TNFa Stimulated MMP-13 n = 1 ([1]; Table 5, 1 ug/mL, SW1353): 95%; TNFa Stimulated MMP-13 n = 1 ([1]; Table 5, 5 ug/mL, SW1353): 38%; TNFa Stimulated MMP-13 n = 1 ([1]; Table 5, 10 ug/mL, SW1353): 43%; TNFa Stimulated MMP-13 n = 1 ([1]; Table 5, 20 ug/mL, SW1353): 26%
C/C=C1/[C@H](O[C@@H]2O[C@H](CO)[C@@H](O)[C@H](O)[C@H]2O)OC=C(C(=O)OC)[C@H]1CC(=O)OCCc1ccc(O)c(O)c1 [Oleuropein]	–	–	–	82	81	-31	–	–
O=C(CCc1ccc(O)cc1)c1c(O)cc(O)cc1O[C@@H]1O[C@H](CO)[C@@H](O)[C@H](O)[C@H]1O [Phloridzin]	–	–	–	103	150	77	–	–
O=C([O-])CC(O)(CC(=O)[O-])C(=O)[O-].[K+].[K+].[K+] [Potassium Citrate]	–	–	–	–	–	–	95	–
O=c1c(O)c(-c2ccc(O)c(O)c2)oc2cc(O)cc(O)c12 [Quercetin]	–	–	–	73	62	-65	–	–
Oc1ccc(C=Cc2cc(O)cc(O)c2)cc1 [Resveratrol]	117	17	16	11	2	-42	–	Dose dependence of inhibition of TNFα induced MMP-13 expression ([1]; SW1353): dose dependently (20, 10, and 1 ug/ml) inhibited; activity at 1 µg/mL [1, 6]: 96%; activity at 5 µg/mL [1, 7]: 88%; activity at 10 µg/mL [1, 8]: 53%; activity at 20 µg/mL [1, 9]: 45%
C[C@@H]1O[C@@H](OC[C@H]2O[C@@H](Oc3c(-c4ccc(O)c(O)c4)oc4cc(O)cc(O)c4c3=O)[C@H](O)[C@@H](O)[C@@H]2O)[C@H](O)[C@H](O)[C@H]1O [Rutin]	–	–	–	106	74	-7	–	–
O=C1O[C@H]([C@@H](O)CO)C(O)=C1O [Vitamin C]	–	–	–	–	–	370	–	–
CC(C)=CCC/C(C)=C/CC/C(C)=C/CC/C(C)=C/CC1=C(C)C(=O)c2ccccc2C1=O [Vitamin K2]	–	–	–	–	–	–	56	–
Conjugated Linoleic acid	86	81	79	–	–	–	–	–
Hyaluronic Acid	122	130	111	–	–	–	105	% TRAP Activity average ([3]; 5 ug/mL): 35%; % TRAP Activity average ([3]; 10 ug/mL): 2%
Inulin	–	–	–	–	–	–	33	% TRAP Activity average ([3]; 5 ug/mL): 87%; % TRAP Activity average ([3]; 10 ug/mL): 69%
